From PMC13441969, “Zero-shot design of drug-binding proteins via neural iterative selection−expansion” (Nature, 2026)
“Also recorded” adds a separate entry of the source. Counter-ions that a name gives are not always drawn.

Experiments:
EPIC = assay: Fluorescence anisotropy of fluorescent ligands binding to EPIC; details: for Kd / binding of ligand to EPIC (words): [ligand] = 50 nM; for Kd: 1:1 binding model; for binding of ligand to EPIC (words): dexamethasone and apixaban as FITC conjugates
Procedure: including the ProteinMPNN-designed sequences along with the Ala/Gly versions, are available […]
Fluorescence Polarization Experiments to Determine Binding Affinities
We performed fluorescence anisotropy experiments in a 384 -well plate -reader format to determine the binding affinities of protein s with various ligands (Supp. Fig. 15 and Supp. Table 6). We serially diluted an initial solution containing a high concentration of protein while keeping a constant concentration of ligand (50 nM) in each well. The buffer for these assays was composed of 1x PBS, pH 7.4, and 0.1% w/v PEG-8000. Camptothecin-class molecules (exatecan, camptothecin, belotecan, FL118, irinotecan) were excited at a wavelength of 360 nm using a BMG LabTech PHERAstar FSX plate reader or a BMG LabTech CLARIOstar Plus plate reader. We detected the resulting parallel and perpendicularly polarized emission at 440 nm. […]
excited using 482 nm filter (16 nm bandwidth) using a BMG LabTech CLARIOstar Plus plate reader, and parallel and perpendicularly polarized emissions were detected through a 530 nm filter (40 nm bandwidth). Data was fit using the quadratic form of a single-site binding model.
Gain settings for each molecule were calculated by auto-adjusting the focus on a well containing free ligand and buffer, setting the millipolarization (mP) of free ligand to mP = 35.
Fits to Fluorescence Anisotropy Data
Data from fluorescence anisotropy (r) experiments, which varied total protein concentration, [P]T for a fixed total ligand concentration, [L]T, was fit to a single-site binding […]
model (Equations 1 and 2, N = 1). […] For
EPIC and its mutants, confidence intervals of the fit parameters were determined from bootstrapping the residuals of the optimum fit (random residual selection with replacement) to create 1000 synthetic datasets, which were each separately fit to Equations 1 and 2. Parameter means and 95% confidence intervals were determined from the distribution of the parameters computed from the bootstrapped fits.
We performed separate protein titrations across three fixed exatecan concentration s (25 , 12.5 , and 5 nM) and measured fluorescence anisotropy of exatecan as a function of protein concentration . For each EPIC mutant, the dissociation constant (Kd) and anisotropy baseline (A min) were shared parameters across the three exatecan concentrations. Anisotropy maxima (Amax) and ligand concentration ([L]T) were fit locally. We fit the ligand concentrations locally (to within 15% of the target concentration) to account for experimental discrepancies. Code for performing the fitting is provided in Zenodo16. […]

[1] = Exatecan lactone hydrolysis by time-resolved absorbance; assay type: physicochemical; details: room temperature, pH 7.4; 3 half-lives
[2] = set-up: method as in PMID 35318309, PMID 31620223; details: read-out: cellular half-maximum inhibitory concentration (IC50); cited from earlier work
[3] = set-up: method as in PMID 11595695; details: cited from earlier work

SMILES	ΔΔG (change in binding free energy) relative to the exatecan–EPIC complex (EPIC) [kcal/mol]	Kd (EPIC) [µM]	binding of ligand to EPIC (words) (EPIC)	other results
CC[C@@]1(O)C(=O)OCc2c1cc1n(c2=O)Cc2cc3cc4c(cc3nc2-1)OCO4 [FL118]	2.3	6	–	–
COc1ccc(-n2nc(C(N)=O)c3c2C(=O)N(c2ccc(N4CCCCC4=O)cc2)CC3)cc1 [apixaban, Apixaban]	–	–	no appreciable binding; also recorded: does not bind	–
COc1ccc(-n2nc(C(=O)NCCOCCOCCNC(=S)Nc3ccc(-c4c5ccc(=O)cc-5oc5cc(O)ccc45)c(C(=O)O)c3)c3c2C(=O)N(c2ccc(N4CCCCC4=O)cc2)CC3)cc1 [apixaban-peg-FITC]	–	–	did not show any experimentally detectable binding	–
CC[C@@]1(O)C(=O)OCc2c1cc1n(c2=O)Cc2c-1nc1ccccc1c2CCNC(C)C [belotecan, Belotecan hydrochloride]	3.0	19	–	–
CC[C@@]1(O)C(=O)OCc2c1cc1n(c2=O)Cc2cc3ccccc3nc2-1 [camptothecin, Camptothecin]	3.9	90	–	–
C[C@@H]1C[C@H]2[C@@H]3CCC4=CC(=O)C=C[C@]4(C)[C@@]3(F)[C@@H](O)C[C@]2(C)[C@@]1(O)C(=O)CO [dexamethasone]	–	–	no binding; also recorded: does not bind	binding of ligand to EPIC (words) (EPIC; listed as Dexamethasone): no appreciable binding
CC[C@@]1(O)C(=O)OCc2c1cc1n(c2=O)Cc2c-1nc1cc(F)c(C)c3c1c2[C@@H](N)CC3 [exatecan, Exatecan mesylate]	–	0.12	–	fold tighter binding of EPIC to exatecan than to any other ligand tested (EPIC): at least 50 fold; time for nearly complete conversion from C to O form [1]: ≤ 6 h; IC50 [2]: ~0.001 µM; half-life of hydrolysis of free drug in plasma ([3]; plasma): around 2 h; steady-state level of lactone form in human plasma ([3]; within 10 h): 15%
CCc1c2c(nc3ccc(OC(=O)N4CCC(N5CCCCC5)CC4)cc13)-c1cc3c(c(=O)n1C2)COC(=O)[C@]3(O)CC [irinotecan]	–	–	not to bind; also recorded: no appreciable binding	binding of ligand to EPIC (words) (EPIC; listed as Irinotecan): negligible binding
